Measured values: PubChem BioAssay (NCI)
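Cultured in 96-well plates, cells were exposed to test compound for 48 hours across five concentrations. GI50 = concentration required for 50% inhibition of growth. The concentration for full growth arrest is given as TGI.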

Legend:
Experiment in all cases: growth of human tumour cells (NCI), 48 h
MALME-3M melanoma = tested on: MALME-3M melanoma
SF-295 CNS = tested on: SF-295 CNS
KM12 colon = tested on: KM12 colon
NCI-H522 lung = tested on: NCI-H522 lung
HCT-116 colon = tested on: HCT-116 colon
DU-145 prostate = tested on: DU-145 prostate
TK-10 renal = tested on: TK-10 renal
T-47D breast = tested on: T-47D breast
HT29 colon = tested on: HT29 colon
MOLT-4 leukemia = tested on: MOLT-4 leukemia
OVCAR-3 ovarian = tested on: OVCAR-3 ovarian
SK-MEL-2 melanoma = tested on: SK-MEL-2 melanoma
NCI/ADR-RES ovarian = tested on: NCI/ADR-RES ovarian
NCI-H460 lung = tested on: NCI-H460 lung
OVCAR-4 ovarian = tested on: OVCAR-4 ovarian
SF-539 CNS = tested on: SF-539 CNS
HOP-92 NSCLC = tested on: HOP-92 NSCLC
CAKI-1 renal = tested on: CAKI-1 renal
SR leukemia = tested on: SR leukemia
SK-OV-3 ovarian = tested on: SK-OV-3 ovarian
SK-MEL-28 melanoma = tested on: SK-MEL-28 melanoma
M14 melanoma = tested on: M14 melanoma
HCT-15 colon = tested on: HCT-15 colon
MDA-MB-435 = tested on: MDA-MB-435
UO-31 renal = tested on: UO-31 renal
COLO 205 colon = tested on: COLO 205 colon
BT-549 breast = tested on: BT-549 breast
PC-3 prostate = tested on: PC-3 prostate
MDA-MB-231 breast = tested on: MDA-MB-231 breast
786-0 renal = tested on: 786-0 renal
MCF7 breast = tested on: MCF7 breast
SK-MEL-5 melanoma = tested on: SK-MEL-5 melanoma
SW-620 colon = tested on: SW-620 colon
A549 NSCLC = tested on: A549 NSCLC
HOP-62 NSCLC = tested on: HOP-62 NSCLC
HCC-2998 colon = tested on: HCC-2998 colon
RPMI-8226 leukemia = tested on: RPMI-8226 leukemia
NCI-H23 lung = tested on: NCI-H23 lung
A498 renal = tested on: A498 renal
RXF 393 renal = tested on: RXF 393 renal
SF-268 CNS = tested on: SF-268 CNS
UACC-257 melanoma = tested on: UACC-257 melanoma
K-562 leukemia = tested on: K-562 leukemia
SNB-19 CNS = tested on: SNB-19 CNS
U251 CNS = tested on: U251 CNS
OVCAR-5 ovarian = tested on: OVCAR-5 ovarian
UACC-62 melanoma = tested on: UACC-62 melanoma
MDA-MB-468 breast = tested on: MDA-MB-468 breast
LOX IMVI melanoma = tested on: LOX IMVI melanoma
NCI-H226 lung = tested on: NCI-H226 lung
ACHN renal = tested on: ACHN renal
OVCAR-8 ovarian = tested on: OVCAR-8 ovarian
EKVX NSCLC = tested on: EKVX NSCLC
HS 578T breast = tested on: HS 578T breast
SN12C renal = tested on: SN12C renal
IGROV1 ovarian = tested on: IGROV1 ovarian
CCRF-CEM leukemia = tested on: CCRF-CEM leukemia

COc1ccccc1/C=C/C(=O)c1ccc(OC)c(S(N)(=O)=O)c1
GI50 (MALME-3M melanoma): 3.99 µM
TGI (MALME-3M melanoma): 16.2 µM
GI50 (SF-295 CNS): 2.66 µM
TGI (SF-295 CNS): 10.6 µM
GI50 (KM12 colon): 2.89 µM
TGI (KM12 colon): 10 µM
GI50 (NCI-H522 lung): 2.12 µM
TGI (NCI-H522 lung): 6.58 µM
GI50 (HCT-116 colon): 2.49 µM
TGI (HCT-116 colon): 9.38 µM
GI50 (DU-145 prostate): 3.22 µM
TGI (DU-145 prostate): 12 µM
GI50 (TK-10 renal): 3.54 µM
TGI (TK-10 renal): 13 µM
GI50 (T-47D breast): 3.25 µM
TGI (T-47D breast): 12.3 µM
GI50 (HT29 colon): 3.06 µM
TGI (HT29 colon): 10.2 µM
GI50 (MOLT-4 leukemia): 2.4 µM
TGI (MOLT-4 leukemia): 8.35 µM
GI50 (OVCAR-3 ovarian): 2.23 µM
TGI (OVCAR-3 ovarian): 5.05 µM
GI50 (SK-MEL-2 melanoma): 10.4 µM
TGI (SK-MEL-2 melanoma): 22.3 µM
GI50 (NCI/ADR-RES ovarian): 2.29 µM
TGI (NCI/ADR-RES ovarian): 6.68 µM
GI50 (NCI-H460 lung): 2.09 µM
TGI (NCI-H460 lung): 5.51 µM
GI50 (OVCAR-4 ovarian): 3.65 µM
TGI (OVCAR-4 ovarian): 16.4 µM
GI50 (SF-539 CNS): 2.25 µM
TGI (SF-539 CNS): 4.96 µM
GI50 (HOP-92 NSCLC): 2.08 µM
TGI (HOP-92 NSCLC): 8.78 µM
GI50 (CAKI-1 renal): 3.18 µM
TGI (CAKI-1 renal): 13 µM
GI50 (SR leukemia): 1.44 µM
TGI (SR leukemia): 6.2 µM
GI50 (SK-OV-3 ovarian): 7.25 µM
TGI (SK-OV-3 ovarian): 20.4 µM
GI50 (SK-MEL-28 melanoma): 4.49 µM
TGI (SK-MEL-28 melanoma): 15.8 µM
GI50 (M14 melanoma): 2.71 µM
TGI (M14 melanoma): 11.8 µM
GI50 (HCT-15 colon): 1.99 µM
TGI (HCT-15 colon): 10.5 µM
GI50 (MDA-MB-435): 2.98 µM
TGI (MDA-MB-435): 11.5 µM
GI50 (UO-31 renal): 2.9 µM
TGI (UO-31 renal): 13.4 µM
GI50 (COLO 205 colon): 3.54 µM
TGI (COLO 205 colon): 13.4 µM
GI50 (BT-549 breast): 2.58 µM
TGI (BT-549 breast): 8.21 µM
GI50 (PC-3 prostate): 4.81 µM
TGI (PC-3 prostate): 18.5 µM
GI50 (MDA-MB-231 breast): 2.72 µM
TGI (MDA-MB-231 breast): 7.47 µM
GI50 (786-0 renal): 3.25 µM
TGI (786-0 renal): 12.9 µM
GI50 (MCF7 breast): 2.67 µM
TGI (MCF7 breast): 11.3 µM
GI50 (SK-MEL-5 melanoma): 3.85 µM
TGI (SK-MEL-5 melanoma): 14.2 µM
GI50 (SW-620 colon): 2.86 µM
TGI (SW-620 colon): 10.8 µM
GI50 (A549 NSCLC): 3.11 µM
TGI (A549 NSCLC): 13 µM
GI50 (HOP-62 NSCLC): 2.88 µM
TGI (HOP-62 NSCLC): 10.3 µM
GI50 (HCC-2998 colon): 2.65 µM
TGI (HCC-2998 colon): 12 µM
GI50 (RPMI-8226 leukemia): 2.49 µM
TGI (RPMI-8226 leukemia): 7.46 µM
GI50 (NCI-H23 lung): 2.29 µM
TGI (NCI-H23 lung): 9.56 µM
GI50 (A498 renal): 10.6 µM
TGI (A498 renal): 22.6 µM
GI50 (RXF 393 renal): 2.35 µM
TGI (RXF 393 renal): 8.86 µM
GI50 (SF-268 CNS): 3.28 µM
TGI (SF-268 CNS): 12 µM
GI50 (UACC-257 melanoma): 5.96 µM
TGI (UACC-257 melanoma): 19.6 µM
GI50 (K-562 leukemia): 0.349 µM
TGI (K-562 leukemia): 14.6 µM
GI50 (SNB-19 CNS): 4.02 µM
TGI (SNB-19 CNS): 15.3 µM
GI50 (U251 CNS): 2.58 µM
TGI (U251 CNS): 10.7 µM
GI50 (OVCAR-5 ovarian): 2.2 µM
TGI (OVCAR-5 ovarian): 6.14 µM
GI50 (UACC-62 melanoma): 2.95 µM
TGI (UACC-62 melanoma): 12.3 µM
GI50 (MDA-MB-468 breast): 2.04 µM
TGI (MDA-MB-468 breast): 5.91 µM
GI50 (LOX IMVI melanoma): 1.98 µM
TGI (LOX IMVI melanoma): 5.27 µM
GI50 (NCI-H226 lung): 3.96 µM
TGI (NCI-H226 lung): 15.5 µM
GI50 (ACHN renal): 3.38 µM
TGI (ACHN renal): 12.4 µM
GI50 (OVCAR-8 ovarian): 2.36 µM
TGI (OVCAR-8 ovarian): 7.16 µM
GI50 (EKVX NSCLC): 3.58 µM
TGI (EKVX NSCLC): 14.1 µM
GI50 (HS 578T breast): 3.27 µM
TGI (HS 578T breast): 20 µM
GI50 (SN12C renal): 2.79 µM
TGI (SN12C renal): 10.4 µM
GI50 (IGROV1 ovarian): 3.08 µM
TGI (IGROV1 ovarian): 11.5 µM
GI50 (CCRF-CEM leukemia): 2.53 µM
TGI (CCRF-CEM leukemia): 6.81 µM
